Literature values as cited in patent US8580318B2, “Natural water soluble extracts for the inhibition of alpha-1-adrenergic receptors” (Naturamed Ltd., priority 2007, dated 2013).

Test system: serum prostate specific antigen (PSA)
Settings: patients with BPH

Question: For `CC(C)(C)NC(=O)[C@H]1CC[C@H]2[C@@H]3CC[C@H]4NC(=O)C=C[C@]4(C)[C@H]3CC[C@]12C` [finasteride, Finasteride], which “decrease in serum prostate specific antigen (PSA) levels” value is on record?
Answer: Its value is “approximately 50%”.
